The values below come from ChEMBL document CHEMBL5724914, “Linking interpersonal differences in gut microbiota composition and drug biotransformation activity” (2024).

Data set [1] can be described thus: The drug is tested on Z-016 corresponding to mouse gut metagenome with ENA study accession number: PRJEB37062 and ENA sample accession number: ERS12561815 for biotransformation under anaerobic condition. The drug concentrations were measured over 9 timepoints collected between 0 and 24 hours of incubation by liquid-chromatography-coupled mass spectrometry (LC–MS). As to conditions: 2 µM.

The conditions of data set [2]: human gut metagenome, 24 h, 2 µM.
For data set [3] the following is noted: human gut metagenome, 24 h, 2 µM. This is another data set of the same source.
Data set [4] can be described thus: The drug is tested on WLS-090 corresponding to human gut metagenome with ENA study accession number: PRJEB37062 and ENA sample accession number: ERS12561753 for biotransformation under anaerobic condition. The drug concentrations were measured over 9 timepoints collected between 0 and 24 hours of incubation by liquid-chromatography-coupled mass spectrometry (LC–MS). As to conditions: 2 µM.

The conditions of data set [5]: human gut metagenome, 24 h, 2 µM. The source holds these as a separate data set.
The conditions of data set [6]: human gut metagenome, 24 h, 2 µM. The source holds these as a separate data set.
Data set [7] can be described thus: The drug is tested on WLS-086 corresponding to human gut metagenome with ENA study accession number: PRJEB37062 and ENA sample accession number: ERS12561752 for biotransformation under anaerobic condition. The drug concentrations were measured over 9 timepoints collected between 0 and 24 hours of incubation by liquid-chromatography-coupled mass spectrometry (LC–MS). As to conditions: 2 µM.

Data set [8] can be described thus: The drug is tested on WLS-310 corresponding to human gut metagenome with ENA study accession number: PRJEB37062 and ENA sample accession number: ERS12561785 for biotransformation under anaerobic condition. The drug concentrations were measured over 9 timepoints collected between 0 and 24 hours of incubation by liquid-chromatography-coupled mass spectrometry (LC–MS). As to conditions: 2 µM.

A short description of data set [9]: The drug is tested on Z-008 corresponding to metagenome with ENA study accession number: PRJEB37062 and ENA sample accession number: ERS12561808 for biotransformation under anaerobic condition. The drug concentrations were measured over 9 timepoints collected between 0 and 24 hours of incubation by liquid-chromatography-coupled mass spectrometry (LC–MS). As to conditions: 2 µM.

Data set [10] is described as follows: The drug is tested on Z-004 corresponding to metagenome with ENA study accession number: PRJEB37062 and ENA sample accession number: ERS12561804 for biotransformation under anaerobic condition. The drug concentrations were measured over 9 timepoints collected between 0 and 24 hours of incubation by liquid-chromatography-coupled mass spectrometry (LC–MS). As to conditions: 2 µM.

For data set [11] the following is noted: human gut metagenome, 24 h, 2 µM. This is another data set of the same source.
The conditions of data set [12]: human gut metagenome, 24 h, 2 µM. This is another data set of the same source.
A short description of data set [13]: The drug is tested on WLS-039 corresponding to human gut metagenome with ENA study accession number: PRJEB37062 and ENA sample accession number: ERS12561746 for biotransformation under anaerobic condition. The drug concentrations were measured over 9 timepoints collected between 0 and 24 hours of incubation by liquid-chromatography-coupled mass spectrometry (LC–MS). As to conditions: 2 µM.

A short description of data set [14]: The drug is tested on Z-005 corresponding to metagenome with ENA study accession number: PRJEB37062 and ENA sample accession number: ERS12561805 for biotransformation under anaerobic condition. The drug concentrations were measured over 9 timepoints collected between 0 and 24 hours of incubation by liquid-chromatography-coupled mass spectrometry (LC–MS). As to conditions: 2 µM.

For data set [15] the following is noted: human gut metagenome, 24 h, 2 µM. The source holds these as a separate data set.
Data set [16] is described as follows: The drug is tested on WLS-006 corresponding to human gut metagenome with ENA study accession number: PRJEB37062 and ENA sample accession number: ERS12561741 for biotransformation under anaerobic condition. The drug concentrations were measured over 9 timepoints collected between 0 and 24 hours of incubation by liquid-chromatography-coupled mass spectrometry (LC–MS). As to conditions: 2 µM.

The nature of data set [17]: The drug is tested on Z-025 corresponding to rabbit gut metagenome with ENA study accession number: PRJEB37062 and ENA sample accession number: ERS12561824 for biotransformation under anaerobic condition. The drug concentrations were measured over 9 timepoints collected between 0 and 24 hours of incubation by liquid-chromatography-coupled mass spectrometry (LC–MS). As to conditions: 2 µM.

Data set [18] is described as follows: The drug is tested on Z-030 corresponding to mouse gut metagenome with ENA study accession number: PRJEB37062 and ENA sample accession number: ERS12561829 for biotransformation under anaerobic condition. The drug concentrations were measured over 9 timepoints collected between 0 and 24 hours of incubation by liquid-chromatography-coupled mass spectrometry (LC–MS). As to conditions: 2 µM.

Data set [19] can be described thus: The drug is tested on WLS-098 corresponding to human gut metagenome with ENA study accession number: PRJEB37062 and ENA sample accession number: ERS12561754 for biotransformation under anaerobic condition. The drug concentrations were measured over 9 timepoints collected between 0 and 24 hours of incubation by liquid-chromatography-coupled mass spectrometry (LC–MS). As to conditions: 2 µM.

For data set [20] the following is noted: human gut metagenome, 24 h, 2 µM. This is another data set of the same source.

SMILES strings stand for the structures.
Further: call rule not given here.

In the case of `NC12CC3CC(CC(C3)C1)C2` [AMANTADINE], the “Bacterial Biotransformation” value in [1], in data set [2], in [3], in [4], in [5] and in [6] was “Compound NOT metabolized” in each case. In addition, the “Bacterial Biotransformation” value in data set [7], in [8], in data set [9], in data set [10], in data set [11] and in data set [12] was “Compound NOT metabolized” throughout. Further, the “Bacterial Biotransformation” value in data set [13] was “Compound NOT metabolized”; in data set [14] it was “Compound NOT metabolized”; in [15], “Compound NOT metabolized”; in [16], “Compound NOT metabolized”; in data set [17] it was “Compound metabolized”; in data set [18], “Compound NOT metabolized”. In addition, the “Bacterial Biotransformation” value in data set [19] and in [20] was “Compound NOT metabolized” in each case.
As to `CC(C)(C#N)c1cc(Cn2cncn2)cc(C(C)(C)C#N)c1` [ANASTROZOLE], the “Bacterial Biotransformation” value in [1] is “Compound NOT metabolized”; in data set [2], “Compound NOT metabolized”; in [3], “Compound NOT metabolized”; in data set [4], “Compound metabolized”; in data set [5], “Compound NOT metabolized”; in [6], “Compound NOT metabolized”. For the same compound, the “Bacterial Biotransformation” value in [7] is on record as “Compound NOT metabolized”; in data set [8] it was “Compound metabolized”; in [9], “Compound NOT metabolized”; in data set [10], “Compound NOT metabolized”; in data set [11] it was “Compound NOT metabolized”; in data set [12], “Compound NOT metabolized”. The “Bacterial Biotransformation” value in [13] is “Compound NOT metabolized”; in [14] it was “Compound NOT metabolized”; in data set [15] it was “Compound metabolized”; in data set [16] it was “Compound NOT metabolized”; in data set [17], “Compound NOT metabolized”; in data set [18], “Compound NOT metabolized”. The “Bacterial Biotransformation” value in [19] and in data set [20] was “Compound metabolized” each time.
Regarding `O=P(O)(O)O.c1ccc(CN(CC2=NCCN2)c2ccccc2)cc1` [ANTAZOLINE PHOSPHATE], the “Bacterial Biotransformation” value in [1] is “Compound NOT metabolized”; in [2], “Compound NOT metabolized”; in [3], “Compound NOT metabolized”; in data set [4], “Compound metabolized”; in data set [5], “Compound NOT metabolized”; in [6], “Compound metabolized”. Also, the “Bacterial Biotransformation” value was “Compound metabolized” in data set [7]; “Compound NOT metabolized” in data set [8]; “Compound NOT metabolized” in [9]; “Compound metabolized” in data set [10]; “Compound metabolized” in data set [11]; “Compound NOT metabolized” in [12]. Further, the “Bacterial Biotransformation” value in data set [13] was “Compound NOT metabolized”; in data set [14], “Compound NOT metabolized”; in data set [15], “Compound NOT metabolized”; in data set [16], “Compound metabolized”; in [17], “Compound NOT metabolized”; in data set [18] it was “Compound NOT metabolized”. Besides, the “Bacterial Biotransformation” value in data set [19] and in data set [20] was “Compound metabolized” throughout.
As for `CN1CCC(=C2c3ccccc3CCc3cccnc32)CC1.O=C(O)/C=C\C(=O)O.O=C(O)/C=C\C(=O)O` [AZATADINE MALEATE], the “Bacterial Biotransformation” value in data set [1], in data set [2], in [3], in [4], in [5] and in [6] was “Compound NOT metabolized” throughout. The “Bacterial Biotransformation” value in [7], in data set [8], in data set [9], in data set [10], in [11] and in data set [12] was “Compound NOT metabolized” in each case. The “Bacterial Biotransformation” value in [13], in data set [14], in data set [15], in data set [16], in data set [17] and in [18] was “Compound NOT metabolized” throughout. Besides, the “Bacterial Biotransformation” value in data set [19] and in data set [20] was “Compound NOT metabolized” each time.
In the case of `CC(=O)OCC(=O)[C@@]1(O)[C@@H](C)C[C@H]2[C@@H]3CCC4=CC(=O)C=C[C@]4(C)[C@@]3(F)[C@@H](O)C[C@@]21C` [BETAMETHASONE ACETATE], the “Bacterial Biotransformation” value in data set [1], in data set [2], in data set [3], in data set [4], in data set [5] and in data set [6] was “Compound metabolized” throughout. In addition, the “Bacterial Biotransformation” value is on record as “Compound metabolized” in data set [7]; “Compound metabolized” in [8]; “Compound NOT metabolized” in data set [9]; “Compound NOT metabolized” in data set [10]; “Compound metabolized” in data set [11]; “Compound metabolized” in data set [12]. Further, the “Bacterial Biotransformation” value in data set [13] is listed as “Compound metabolized”; in [14] it was “Compound metabolized”; in data set [15] it was “Compound metabolized”; in [16] it was “Compound metabolized”; in data set [17], “Compound metabolized”; in [18], “Compound NOT metabolized”. Also, the “Bacterial Biotransformation” value in data set [19] and in [20] was “Compound metabolized” in each case.
